Assay results taken from patent US8765688B2, “Anti-dandruff compositions containing peptides” (priority 2007, dated 2014).
Ends that are not written are not given here.

How the values were obtained:
Assay type in all cases: cell-based
Malassezia furfur [1] = test: Minimum inhibitory concentration (MIC) of P18 in the presence of shampoo basic formulation 31-3, CFU after 24 hours; settings: for CFU after 24 hours of incubation: in presence of shampoo basic formulation 31-3
Procedure: The minimum inhibitory concentration (MIC) of the peptide P18 (H-KWKLFKKIPKFLHLAKKF-NH2; carboxy-terminal end amidated; SEQ ID NO: 3) in the presence of the shampoo basic formulation 31-3 (table 16) was tested as follows: […]
The following shampoo basic formulation was prepared: […]
The shampoo basic formulation was prepared by mixing and dissolving the components Texapon NSO and Tego Betain L7. The pH was adjusted to pH 6-7 with NaOH.
The effect of the peptide against M. furfur was analyzed as follows:
(§1) Growth medium: M472-Pityrosporum medium according to DSMZ
(§2) The components were sterilized at 121° C., 1 bar superatmospheric pressure for 20 minutes.
(§3) 2 g/L of olive oil (sterilized by filtration and, after autoclaving, added to the other components)
(§4) Since it was a two-phase medium, the complete medium was treated with sonication in order to enlarge the phase boundary.
(§5) For agar plates, if appropriate, 150 g/L of agar agar were added to the medium.
(§6) The growth test was carried out as follows: A shake flask with M472-Pityrosporum medium was inoculated with M. furfur and incubated with shaking overnight at 30° C. and 200 rpm.
A 96-well microtiter plate was filled with in each case 170 μl of M472-Pityrosporum medium and inoculated with 10 μl of M. furfur suspension of the overnight culture. This corresponded to an optical density of 0.02-0.1, measured at 620 nm. 20 μl of shampoo basic formulation 31-3 were added to this mixture. Peptide P18 was dissolved in DMSO with a concentration of 10 mM.
(§7) The microtiter plate was incubated with shaking at 30° C.
After incubation for 24 hours, the colony-forming units (CFU) were determined by resuspending 1 μl of each of the suspensions in 10 μl of medium and then plating out the obtained suspensions. After incubation for 6 days, the colonies on the plate were counted. The experiment was carried out in double determination.

Malassezia furfur [2] = test: Long-term stability of P18 (12 weeks at 37° C.) tested on Malassezia furfur, CFU; settings: for colony-forming units: mean ± SD
Procedure: Since storage over longer time periods may be necessary, in the following a 1 mM P18 peptide solution (P18 sequence H-KWKLFKKIPKFLHLAKKF-NH2; SEQ ID NO: 3) was stored for 12 weeks at 37° C. and the antifungal activity of the stored solution on Malassezia furfur was compared to the activity of a freshly prepared 1 mM P18 peptide solution. This was done through a growth test, which was carried out as follows:
as §1, §2, §3, §4, §5, §6
A 96-well microtiter plate was filled with in each case 100 μl of M472-Pityrosporum medium and inoculated with M. furfur suspension of the overnight culture. The M. furfur suspension was adjusted at the start of the experiment to an optical density, measured at 600 nm, of 0.02. The concentrates of the inhibitor solutions were 1 mM in water.
The growth of the following batches was compared:
M. furfur suspension without the addition of an inhibitor.
M. furfur suspension and addition of a fresh aqueous P18 solution with a final concentration of 50 μM.
M. furfur suspension and addition of a fresh aqueous P18 solution with a final concentration of 25 μM.
M. furfur suspension and addition of a P18 solution that had been stored at 37° C. for 12 weeks, with a final concentration of 50 μM.
M. furfur suspension and addition of a P18 solution that had been stored at 37° C. for 12 weeks, with a final concentration of 25 μM.
as §7
The growth was observed over 24 hours by measuring the optical density. The colony-forming units (CFU) were then determined by plating out 1 μl and 5 μl from each of the suspensions and, after incubation for 6 days, counting the colonies. The CFU was determined in order to exclude an influence of the two-phase medium and also the growth form of M. furfur on the optical density. The experiments were carried out at least in triple determinations.

Malassezia furfur [3] = test: Growth inhibition of Malassezia furfur with equal concentrations (% by weight) of P18, Zincpyrithione, Climbazole and Ketoconazole, CFU; settings: for colony-forming units: 50 μM final conc., mean ± SD
Procedure: as §1, §2, §3, §4, §5, §6
A 96-well microtiter plate was filled with in each case 100 μl of M472-Pityrosporum medium and inoculated with M. furfur suspension of the overnight culture. The M. furfur suspension was adjusted at the start of the experiment to an optical density, measured at 600 nm, of 0.02. The concentrates of the inhibitor solutions were 1 mM in DMSO for the peptide P18 and 10 mM in DMSO for Zincpyrithione, Ketoconazole and Climbazole. The DMSO final concentrations were maintained the same in all experiments. This means that a corresponding volume of DMSO was added to the mixture in the case of a higher concentration of Zincpyrithione, Ketoconazole or Climbazole concentrate in order to ensure comparability to the mixtures containing P18.
The growth of the following batches was compared by measuring the optical density:
M. furfur suspension and addition of P18 solution with a final concentration of 50 μM (equal to 0.0115% (w/w))
M furfur suspension and addition of Zincpyrithione (ZPT) solution with a final concentration of 362 μM (comparison to the mixture containing 50 μM of the peptide P18)
M furfur suspension and addition of Ketoconazole solution with a final concentration of 216 μM (comparison to the mixture containing 50 μM of the peptide P18)
M furfur suspension and addition of Climbazole solution with a final concentration of 390 μM (comparison to the mixture containing 50 μM of the peptide P18)
as §7
After 24 hours of incubation, the colony-forming units (CFU) were determined by plating out 10 μl of medium from each of the suspensions on agar plates. After incubation for 6 days, the colonies on the plates were counted. The CFU was determined in order to exclude an influence of the two-phase medium and also the growth form of M. furfur on the optical density. The experiments were carried out in at least two independent experiments, each with double determination.

Question: For “KWKLFKKIPKFLHLAKKF-NH2 [P18, KWKLFKKIPKFLHLAKKF-NH2]”, which “CFU after 24 hours of incubation” value (Malassezia furfur [1]; P18 concentration 25 μM) is on record?
Answer: 80

Question: What about the “CFU after 24 hours of incubation” value (Malassezia furfur [1]; P18 concentration 50 μM) of the same substance?
Answer: 32

Question: And the “CFU after 24 hours of incubation” value (Malassezia furfur [1]; P18 concentration 100 μM)?
Answer: 0

Question: And the “CFU after 24 hours of incubation” value (Malassezia furfur [1]; P18 concentration 200 μM)?
Answer: 0

Question: What about the “CFU after 24 hours of incubation” value (Malassezia furfur [1]; P18 concentration 300 μM) of the same substance?
Answer: 0

Question: What about the “CFU after 24 hours of incubation” value (Malassezia furfur [1]; P18 concentration 400 μM) of the same substance?
Answer: 0

Question: What about the “CFU after 24 hours of incubation” value (Malassezia furfur [1]; P18 concentration 500 μM) of the same substance?
Answer: 0

Question: What about the “P18 concentrations that completely inhibit growth of M. furfur” value (Malassezia furfur [1]; in the presence of shampoo basic formulation 31-3, 24 hours) of the same substance?
Answer: above 100 μM

Question: What about the “influence of storage on the activity of the P18 peptide solution” value (Malassezia furfur [2]; 1 mM solution stored for 12 weeks at 37° C.) of the same substance?
Answer: has not influenced the activity

Question: What about the colony-forming units (Malassezia furfur [2]; aqueous P18 solution stored 12 weeks at 37° C., 25 μM final conc., incubation time 16-18 h) of the same substance?
Answer: 6 ± 7

Question: What about the colony-forming units (Malassezia furfur [2]; aqueous P18 solution stored 12 weeks at 37° C., 25 μM final conc., incubation time 24 h) of the same substance?
Answer: 5 ± 5

Question: And the colony-forming units (Malassezia furfur [2]; aqueous P18 solution stored 12 weeks at 37° C., 50 μM final conc., incubation time 16-18 h)?
Answer: 0 ± 0

Question: What about the colony-forming units (Malassezia furfur [2]; aqueous P18 solution stored 12 weeks at 37° C., 50 μM final conc., incubation time 24 h) of the same substance?
Answer: 1 ± 1

Question: And the colony-forming units (Malassezia furfur [2]; fresh aqueous P18 solution, 25 μM final conc., incubation time 16-18 h)?
Answer: 5 ± 8

Question: What about the colony-forming units (Malassezia furfur [2]; fresh aqueous P18 solution, 25 μM final conc., incubation time 24 h) of the same substance?
Answer: 1 ± 2

Question: What about the colony-forming units (Malassezia furfur [2]; fresh aqueous P18 solution, 50 μM final conc., incubation time 16-18 h) of the same substance?
Answer: 0 ± 0

Question: And the colony-forming units (Malassezia furfur [2]; fresh aqueous P18 solution, 50 μM final conc., incubation time 24 h)?
Answer: 1 ± 1

Question: What about the “reduction of CFU compared to reference substances” value (Malassezia furfur [3]; 50 μM (0.0115% (w/w)), equal % by weight, 24 hours) of the same substance?
Answer: more effectively than the reference substances Zincpyrithione, Climbazole and Ketoconazole

Question: And the colony-forming units (Malassezia furfur [3]; incubation time 24 h)?
Answer: 1 ± 1

Question: What about the colony-forming units (Malassezia furfur [3]; incubation time 40 h) of the same substance?
Answer: 0 ± 0
